In brackets after ≈: the same amount, converted by molar mass.
Experiments:
Assay type in all cases: cell-based
C. albicans = test: MIC100 against C. albicans strains; conditions: Candida albicans, 48 h
C. tropicalis = test: MIC100 against C. tropicalis; conditions: Candida tropicalis; C. tropicalis 19596(w.t), wild type; 48 h
C. glabrata = test: MIC100 against C. glabrata strains; conditions: Nakaseomyces glabratus, 48 h

## Clc1ccc(COC(Cn2ccnc2)c2ccc(Cl)cc2Cl)c(Cl)c1 (stereo not shown) [miconazole]
C. albicans; C. albicans 19457(w.t), wild type
  MIC: 4.17 µM (≈ 1.74 µg/mL)
C. albicans; C. albicans 19507(r), resistant
  MIC: 4.17 µM (≈ 1.74 µg/mL)
C. albicans; C. albicans 20126(r), resistant
  MIC: 17 µM (≈ 7.07 µg/mL)
C. tropicalis
  MIC: 8.3 µM (≈ 3.45 µg/mL)
C. glabrata; C. glabrata 05/1032(r), resistant
  MIC: 8.3 µM (≈ 3.45 µg/mL)
C. glabrata; C. glabrata 05/1414(r), resistant
  MIC: 17 µM (≈ 7.07 µg/mL)
C. glabrata; C. glabrata 19371(w.t.), wild type
  MIC: 4.17 µM (≈ 1.74 µg/mL)
